Source: PubChem BioAssay AID264 (DTP/NCI, 2004)
Where “and” joins values, the source holds several entries; their conditions need not be identical. Equal entries are not always repeated. Records with an inconclusive call do not appear.

System: nude mice, LX-1 lung xenograft intrarenal, tumor weight T/C
Assay: NCI In Vivo Anticancer Drug Screen. Data for tumor model Human Lung LX-1 Xenograft (intrarenal inoculation) in NU/NU Swiss (nude) mice
Conditions: endpoint: mean tumor weight change, higher = larger tumour
In short: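 In vivo, transplantable tumor; compound vs vehicle arms; tumor size measured; value = T/C.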

[1] = dose: 300.0 mg/kg/injection, schedule: Q04DX003 (sc), vehicle: suspension in saline
[2] = dose: 600.0 mg/kg/injection, schedule: Q04DX003 (sc), vehicle: suspension in saline
[3] = dose: 1200.0 mg/kg/injection, schedule: Q04DX003 (sc), vehicle: suspension in saline
[4] = dose: 37.5 mg/kg/injection, schedule: Q04DX003 (sc), vehicle: saline with Tween-80
[5] = dose: 75.0 mg/kg/injection, schedule: Q04DX003 (sc), vehicle: saline with Tween-80
[6] = dose: 150.0 mg/kg/injection, schedule: Q04DX003 (sc), vehicle: saline with Tween-80
[7] = dose: 200.0 mg/kg/injection, schedule: Q01DX010 (sc), vehicle: Klucel (hydroxypropylcellulose) (HPC)
[8] = dose: 400.0 mg/kg/injection, schedule: Q01DX010 (sc), vehicle: Klucel (hydroxypropylcellulose) (HPC)
[9] = dose: 800.0 mg/kg/injection, schedule: Q01DX010 (sc), vehicle: Klucel (hydroxypropylcellulose) (HPC)
[10] = dose: 50.0 mg/kg/injection, schedule: Q01DX010 (sc), vehicle: Klucel (hydroxypropylcellulose) (HPC)
[11] = dose: 100.0 mg/kg/injection, schedule: Q01DX010 (sc), vehicle: Klucel (hydroxypropylcellulose) (HPC)
[12] = dose: 300.0 mg/kg/injection, schedule: Q04DX003 (sc), vehicle: saline with Tween-80
[13] = dose: 600.0 mg/kg/injection, schedule: Q04DX003 (sc), vehicle: saline with Tween-80
[14] = dose: 1200.0 mg/kg/injection, schedule: Q04DX003 (sc), vehicle: saline with Tween-80
[15] = dose: 100.0 mg/kg/injection, schedule: Q04DX003 (sc), vehicle: saline
[16] = dose: 200.0 mg/kg/injection, schedule: Q04DX003 (sc), vehicle: saline
[17] = dose: 2400.0 mg/kg/injection, schedule: Q04DX003 (sc), vehicle: saline with Tween-80
[18] = dose: 25.0 mg/kg/injection, schedule: Q01DX010 (sc), vehicle: Klucel (hydroxypropylcellulose) (HPC)

Cc1cn(C2CC(F)C(CO)O2)c(=O)[nH]c1=O (configuration not stated) was tested, and the T/C (dose: 150.0 mg/kg/injection, schedule: Q04DX003 (sc), vehicle: suspension in saline) was 54 % of control, the T/C [1] was 85 % of control and the T/C [2] was 56 % of control. The T/C [3] was 37 % of control.
Nc1nc(N)c2c(ccc3c2ccn3Cc2cccc([N+](=O)[O-])c2)n1 was tested, and the T/C [4] was 100 % of control, the T/C [5] was 69 % of control and the T/C [6] was 50 % of control.
c1ccc2c(c1)-c1ccccc1C1NC21 (configuration not stated) was tested, and the T/C [4] was 82 % of control, the T/C [5] was 56 % of control and the T/C [6] was 45 % of control.
With COC1=CC(=O)N(C(=O)C2CSC(C(CO)NC(=O)c3csc(/C=N/O)n3)=N2)C1 (configuration not stated) the T/C (dose: 225.0 mg/kg/injection, schedule: Q04DX003 (sc), vehicle: Klucel (hydroxypropylcellulose) (HPC)) was 59 % of control, the T/C (dose: 450.0 mg/kg/injection, schedule: Q04DX003 (sc), vehicle: Klucel (hydroxypropylcellulose) (HPC)) was 112 % of control and the T/C (dose: 900.0 mg/kg/injection, schedule: Q04DX003 (sc), vehicle: Klucel (hydroxypropylcellulose) (HPC)) was 87 % of control. The T/C (dose: 1800.0 mg/kg/injection, schedule: Q04DX003 (sc), vehicle: Klucel (hydroxypropylcellulose) (HPC)) was 50 % of control.
With O=c1[nH]c(=O)n(C2CC(O)C(CO)O2)cc1Br (configuration not stated) the T/C [7] was 35 % of control, the T/C [8] was 35 % of control and the T/C [9] was 27 % of control.
CN(C)/N=N/c1nc[nH]c1C(N)=O was tested, and the T/C [10] was 4 % of control, the T/C [11] was -84 % of control and the T/C [7] was -100 % of control.
With ClCc1ccc2ccccc2n1 the T/C [6] was 158 % of control, the T/C [12] was 105 % of control and the T/C [13] was 77 % of control.
In the case of Nc1ccc2nc3ccc(N)cc3[n+](-c3ccccc3)c2c1, the T/C (dose: 36.0 mg/kg/injection, schedule: Q04DX003 (sc), vehicle: saline) is reported as 110 % of control and the T/C (dose: 72.0 mg/kg/injection, schedule: Q04DX003 (sc), vehicle: saline) is reported as 70 % of control.
In the case of O=C(O)c1c2c(nc3ccccc13)Cc1ccccc1-2, the T/C (dose: 100.0 mg/kg/injection, schedule: Q01DX010 (sc), vehicle: water) is reported as 39 % of control and the T/C (dose: 200.0 mg/kg/injection, schedule: Q01DX010 (sc), vehicle: water) is reported as 33 % of control.
Cc1[nH]c(=O)[nH]c(=O)c1N(CCF)CCCl was tested, and the T/C (dose: 40.0 mg/kg/injection, schedule: Q01DX010 (sc), vehicle: Klucel (hydroxypropylcellulose) (HPC)) was 19 % of control and 34 % of control and 36 % of control.
With CC1(C)OCC2OC=CC(=O)C2O1 (configuration not stated) the T/C [12] was 89 % of control.
For F[B-](F)(F)F, the T/C (dose: 300.0 mg/kg/injection, schedule: Q04DX003 (sc), vehicle: gum acacia) was 103 % of control, the T/C (dose: 600.0 mg/kg/injection, schedule: Q04DX003 (sc), vehicle: gum acacia) was 101 % of control and the T/C (dose: 1200.0 mg/kg/injection, schedule: Q04DX003 (sc), vehicle: gum acacia) was 84 % of control.
In the case of CCOC(=O)[C@]1(Br)CC[C@@]1(Br)C(=O)OCC, the T/C (dose: 800.0 mg/kg/injection, schedule: Q04DX003 (sc), vehicle: saline with Tween-80) is reported as 107 % of control and the T/C [14] is reported as 123 % of control.
C[n+]1c2cc(N)ccc2cc2ccc(N)cc21 was tested, and the T/C (dose: 6.25 mg/kg/injection, schedule: Q01DX010 (sc), vehicle: saline) was 72 % of control.
In the case of CC(=O)C1=C(O)C2(O)C(=O)c3c(c(C)c4ccc(C)c(O)c4c3O)CC2C(N)C1=O (configuration not stated), the T/C (dose: 50.0 mg/kg/injection, schedule: Q04DX003 (sc), vehicle: saline) is reported as 107 % of control, the T/C [15] is reported as 110 % of control and the T/C [16] is reported as 61 % of control. The T/C (dose: 400.0 mg/kg/injection, schedule: Q04DX003 (sc), vehicle: saline) was 51 % of control.
With CN(C)CCN1C(=O)c2cccc3cc(N)cc(c23)C1=O the T/C (dose: 16.0 mg/kg/injection, schedule: Q04DX003 (sc), vehicle: saline with Tween-80) was 157 % of control and the T/C (dose: 64.0 mg/kg/injection, schedule: Q04DX003 (sc), vehicle: saline with Tween-80) was 113 % of control.
For Cn1ccc(=Nc2ccc(NC(=O)c3ccc(N=c4ccn(C)c5ccc([N+](=O)[O-])cc45)cc3[N+](=O)[O-])cc2)cc1, the T/C [12] was 93 % of control, the T/C [13] was 75 % of control and the T/C [14] was 86 % of control. For the same compound, the T/C [17] was 83 % of control.
NC(=O)c1csc(C2OC(CO)C(O)C2O)n1 (configuration not stated) was tested, and the T/C (dose: 200.0 mg/kg/injection, schedule: Q04DX003 (sc), vehicle: water) was 77 % of control, the T/C (dose: 400.0 mg/kg/injection, schedule: Q04DX003 (sc), vehicle: water) was 64 % of control and the T/C (dose: 800.0 mg/kg/injection, schedule: Q04DX003 (sc), vehicle: water) was 99 % of control. The T/C (dose: 1600.0 mg/kg/injection, schedule: Q04DX003 (sc), vehicle: water) was 97 % of control.
Cc1ccc2c(c1)C(=O)N(CC[P+](c1ccccc1)(c1ccccc1)c1ccccc1)C2=O was tested, and the T/C [18] was 51 % of control and the T/C [10] was 37 % of control.
With N#CC(C#N)=C/C=C/c1cccc([N+](=O)[O-])c1 the T/C [18] was 90 % of control, the T/C [10] was 83 % of control and the T/C [11] was 69 % of control. The T/C [8] was 84 % of control and the T/C [9] was 42 % of control.
For NC(=O)c1cn(C2OC(CO)C(O)C2O)c2ncnc(N)c12 (configuration not stated), the T/C (dose: 0.5 mg/kg/injection, schedule: Q01DX010 (sc), vehicle: saline) was 74 % of control, the T/C (dose: 1.0 mg/kg/injection, schedule: Q01DX010 (sc), vehicle: saline) was 88 % of control and the T/C (dose: 2.0 mg/kg/injection, schedule: Q01DX010 (sc), vehicle: saline) was 27 % of control.
With NCCc1cc(O)c(O)c(O)c1 the T/C [15] was 83 % of control, the T/C [16] was 96 % of control and the T/C (dose: 800.0 mg/kg/injection, schedule: Q04DX003 (sc), vehicle: saline) was 91 % of control.
With C=CCNc1nc2c(s1)CCc1cc(OC)c(OC)cc1-2 the T/C [6] was 89 % of control.
NC(Cn1ccc(=O)c(O)c1)C(=O)O (configuration not stated) was tested, and the T/C [1] was 115 % of control, the T/C [2] was 104 % of control and the T/C [3] was 119 % of control. For the same compound, the T/C (dose: 2400.0 mg/kg/injection, schedule: Q04DX003 (sc), vehicle: suspension in saline) was 73 % of control.
With COC1=C(OC)C(=O)C(SC/C=C(\C)CCCC(C)CCCC(C)CCCC(C)C)=CC1=O (configuration not stated) the T/C [13] was 91 % of control, the T/C [14] was 40 % of control and the T/C [17] was 55 % of control.
CCC1=C2C(=O)c3ccccc3C2=C(C)S(=O)(=O)O1 was tested, and the T/C [12] was 66 % of control, the T/C [13] was 70 % of control and the T/C [14] was 89 % of control. The T/C [17] was 86 % of control.
In the case of CC(=O)OC(C)C1C2=C(C(=O)CC1(C)O)C(=O)c1c(ccc(-c3ccc4c(c3O)C(=O)C3=C(C4=O)C(C(C)OC(C)=O)C(C)(O)CC3=O)c1O)C2=O (configuration not stated), the T/C (dose: 3.75 mg/kg/injection, schedule: Q04DX003 (sc), vehicle: saline with Tween-80) is reported as 45 % of control, the T/C (dose: 7.5 mg/kg/injection, schedule: Q04DX003 (sc), vehicle: saline with Tween-80) is reported as 86 % of control and the T/C (dose: 15.0 mg/kg/injection, schedule: Q04DX003 (sc), vehicle: saline with Tween-80) is reported as 87 % of control. The T/C (dose: 30.0 mg/kg/injection, schedule: Q04DX003 (sc), vehicle: saline with Tween-80) was 62 % of control and 78 % of control.
For CC(=O)NCCCCCCNC(C)=O, the T/C (dose: 200.0 mg/kg/injection, schedule: Q01DX010 (sc), vehicle: saline) was 106 % of control, the T/C (dose: 400.0 mg/kg/injection, schedule: Q01DX010 (sc), vehicle: saline) was 45 % of control and the T/C (dose: 800.0 mg/kg/injection, schedule: Q01DX010 (sc), vehicle: saline) was 105 % of control and 114 % of control. The T/C (dose: 3200.0 mg/kg/injection, schedule: Q01DX010 (sc), vehicle: saline) was 96 % of control.
